Converted amounts (≈) assume the structure as drawn. Residues, ends and D or L forms follow the SMILES beside them.

Series [1] concerns HeLa CCL-2 cells. In words: Cytotoxicity of PET-CysTetraF2W-RR (MTS). It counts as cell-based, human. As for the experimental part: HeLa CCL-2 cells from American Type Culture Collection (ATCC) were maintained in DMEM high glucose media with 4 mM L-glutamine (NyClone) and 100 U/mL penicillin, 100 μg/mL streptomycin (pen/strep; p/s) (Life Technologies), and 10% (v/v) inactivated fetal bovine serum (FBS, NyClone), DMEM with 10% FBS, p/s. Cells were grown in 5% CO2 at 37° C. and were detached from culturing dish at 100% confluency using 0.025% trypsin-EDTA (NyClone) treatment, seeded (18,000 cells/well) in 24-well plates (Corning Life Science) and grown overnight in 200 μL DMEM media until 70% confluency. Then the old media were replaced with 500 μL of fresh DMEM media and continued to cultivate for 1 hour with the surfaces with or without peptides (1.0×1.0 cm). 200 μL of the liquid content of each well was taken out and mixed with 20 μL of MTS. The plate was further incubated for another 2 hours at 37° C. To quantify the cytotoxicity, 100 μL of the solution was placed in a 96-well plate and the absorbance was measured on a ChroMate® reader (Awareness Technology) at 492 nm. For comparison, the same amounts of soluble peptides was used to treat them in the same way as described above. Water and 0.2% SDS were used as negative and positive controls, respectively.

For series [2], the system named is E. coli ATCC 25922. It counts as cell-based, Escherichia coli. The settings on record: ATCC 25922. As for the experimental part: (§1) Bacterial strains used in this study included Enterococcus faecium ATCC51559, Staphylococcus aureus USA300 LAC, Klebsiella pneumoniae ATCC 13883, Acinetobacter baumannii B2367-12, Pseudomonas aeruginosa PAO1, Enterobacter cloacae B2366-12 and Escherichia coli ATCC 25922, wherein the first six constituting the ESKAPE pathogens. Tryptic soy broth (TSB) for bacterial growth was obtained from BD Bioscience (Sparks, Md.).
(§2) The antibacterial activity of peptides was evaluated using a standard broth microdilution protocol as described (Wang et al. (2012) Antimicrob. Agents Chemother., 56:845-856). In brief, 5 μl of each bacterium (stored at −80° C.) were inoculated into TSB medium (2 ml) and grown overnight. A second inoculation was made in the morning by delivering 10 μl of the overnight culture to a fresh TSB medium. After 2-3 hours growth at 37° C., 225 rpm, logarithmic phase bacterial cultures (OD600≈0.5) were diluted and partitioned into a 96-well polystyrene microplate with ˜10^5 colony forming units (CFU) per well (90 μl aliquots). After treatment with 10 μl of peptide solutions at various concentrations, microplates were incubated at 37° C. overnight and read on a ChroMate® 4300 Microplate Reader at 630 nm (GMI, Ramsey, Minn.). The medium was used as a blank where no bacteria should grow.

Series [3] relates to E. faecium ATCC51559. The format is cell-based, Enterococcus faecium. The following applies: ATCC51559. As for the experimental part: as §1, §2
The test system of series [4] is ESKAPE pathogens. It counts as cell-based. As for the experimental part: as §1, §2
Series [5] relates to S. aureus USA300 LAC. The format is cell-based, Staphylococcus aureus. The settings on record: USA300. As for the experimental part: as §1, §2
In series [6] the test system is A. baumannii B2367-12. It counts as cell-based, Acinetobacter baumannii. The settings on record: B2367-12. As for the experimental part: as §1, §2
For series [7], the system named is P. aeruginosa PAO1. It counts as cell-based, Pseudomonas aeruginosa. As for the experimental part:
as §1, §2

For series [8], the system named is E. cloacae B2366-12. The format is cell-based, Enterobacter cloacae. The following applies: B2366-12. As for the experimental part:
as §1, §2

Series [9] deals with S. aureus USA300. It counts as cell-based, Staphylococcus aureus. Here is the method: (§3) The antimicrobial activity of peptides was evaluated using a standard broth microdilution protocol. In brief, exponential phase bacteria at 10^6 CFU were incubated with serially diluted peptides overnight for ˜20 hours at 37° C. The plates were read on a ChroMate® 4300 Microplate Reader at 630 nm (GMI, Ramsey, Minn.).

The subject of series [10] is S. aureus USA300. It counts as cell-based, Staphylococcus aureus. The settings on record: 12.5 μM. As for the experimental part:
Two types of experiments were conducted to evaluate the anti-biofilm activity of these peptides against S. aureus USA300 grown under a static condition for 24 hours to form established biofilms in presence of tryptic soy broth (TSB). The experiment was set up using a flat bottom, 96-well, polystyrene microtiter plates (Corning, COSTAR). In short, S. aureus USA300 (10^5 CFU/mL) in fresh TSB media was made from an exponentially growing culture. 200 μL of this bacterial culture was added to each well of the microtiter plates. The plates are then incubated at 37° C. for 24 hours to allow biofilm formation. Media was then carefully removed followed by washing with sterile 1×PBS to remove any unattached bacteria. Solution containing μL of 10× peptide solution and 180 μL of fresh TSB were added. The plates were again incubated at 37° C. for another 24 hours. To measure the extent of biofilm disruption by the peptides as a function of biofilm reduction, crystal violet staining was performed. Media was pipetted out and the wells were carefully washed with 200 μL of PBS to remove the loosely attached cells. Subsequently, 200 μL of 99% methanol was added for fixation and the plates were allowed to sit for 15 minutes. The plates were finally aspirated and dried. Lastly, staining was done with 200 μL of 1% crystal violet in water for 5 minutes. Excess stain was gently rinsed off with tap water, and plates were air-dried. Further, stains were solubilized in 200 μL of 33% glacial acetic acid followed by colorimetric measurement at 600 nm on a Chromate® microtiter plate reader. The amounts of biofilm growth with and without compound treatments were calculated.
In addition, live cell contents of the peptide acted biofilms was estimated by XTT [2,3-bis(2-methyloxy-4-nitro-5-sulfophenyl)-2H-tertazolium-5-carboxanilide]assay by following the manufacturer's instructions with modifications. A 10% XTT solution in TSB media was added to each well and the plates were again incubated for 2 hours at 37° C. Absorbance at 450 nm (only media with XTT containing wells served as the blank) was obtained using Chromate® microtiter plate reader. Percentage of biofilm reduction for the peptide was plotted assuming 100% biofilm growth is achieved on the bacterial wells without peptide treatment.

The subject of series [11] is E. coli ATCC 25922. The format is cell-based, Escherichia coli. The settings on record: ATCC 25922, 20 h. Here is the method: as §3
Series [12] concerns S. aureus USA300. Description: Growth inhibition in TSB media (FIG. 15A). It counts as cell-based, Staphylococcus aureus. The settings on record: 3.1 μM (printed 3.1 LM), 37° C. As for the experimental part:
FIGS. 15A and 15B show the growth inhibition (FIG. 15A) and propidium iodide-based membrane permeation (FIG. 15B) of S. aureus USA300 in TSB media by 3.1 μM of TetraF2W-RR and its single arginine variants (Table 8) at 37° C. with shaking at 100 rpm.
Fluorescence spectroscopy was also used to follow bacterial killing. In brief, μL of serially diluted 10× peptide concentrations were done in 96-well coming COSTAR microtiter plates. Propidium iodide at a fixed concentration of 20 μM per well was added to each well which was finally incubated with 88 μL of S. aureus USA300 (with a final OD600 0.1) with continuous shaking at 100 rpm with meander corner well shaking, 37° C. in a FLUOstar® Omega (BMG LABTECH Inc., NC) microplate reader. The plates were read every 5 minutes for a total duration of 2 hours with excitation and emission wavelengths at 584 nm and 620 nm, respectively.

In series [13] the test system is human red blood cells. Description: Hemolytic ability (Example 3). It counts as cell-based. The settings on record: concentration that causes 50% hemolysis. As for the experimental part: Hemolytic analysis of selected peptides was performed using an established protocol. Briefly, human blood cells (UNMC Blood Bank) were washed three times with phosphate buffer saline (PBS) and diluted to a 2% solution. After peptide treatment, incubation at 37° C. for one hour, and centrifugation at 13,000 rpm, aliquots of the supernatant were transferred to a fresh 96-well microplate. To assess peptide cytotoxicity, the amount of hemoglobin released was measured at 545 nm. The percent lysis was calculated by assuming 100% release when human blood cells were treated with 1% TRITON™ X-100, and 0% release when incubated with PBS buffer.

Series [14] concerns E. coli ATCC 35218. The settings on record: Abbassi et al. (2010); cited from earlier work.
The subject of series [15] is B. megaterium. The following applies: Abbassi et al. (2010); cited from earlier work.
For series [16], the system named is S. aureus ATCC 25923. The following applies: Abbassi et al. (2010); cited from earlier work.
Series [17] relates to E. coli ATCC 25922 and ML-35p strains. The settings on record: Abbassi et al. (2010); cited from earlier work.
Series [18] concerns S. aureus USA300. The format is cell-based, Staphylococcus aureus. The settings on record: Table 2, first S. aureus USA300 column. Summed up:
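Broth microdilution: exponential-phase bacteria at 10^6 CFU incubated with serially diluted peptides ~20 hours at 37° C, read at 630 nm to give MICs. For S. aureus USA300, effects of up to 10% human serum, pH 6.8/7.4/8.0 and 150 mM NaCl also tested.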

Regarding `CC[C@H](C)[C@H](NC(=O)[C@H](CCCNC(=N)N)NC(=O)[C@H](CCCNC(=N)N)NC(=O)[C@H](CC(C)C)NC(=O)[C@H](Cc1c[nH]c2ccccc12)NC(=O)[C@H](Cc1c[nH]c2ccccc12)NC(=O)[C@H](Cc1c[nH]c2ccccc12)NC(=O)[C@@H](N)CS)C(=O)N[C@@H](Cc1c[nH]c2ccccc12)C(N)=O` [CysTetraF2W-RR] (H-CWWWLRRIW-NH2; N-terminus and C-terminus assumed), the “toxicity to HeLa CCL-2 cells” value in [1] is listed as “nontoxic”.
Consider `CC[C@H](C)[C@H](NC(=O)[C@H](CCCNC(=N)N)NC(=O)[C@H](CCC(N)=O)NC(=O)[C@@H](NC(=O)[C@@H](NC(=O)[C@H](CCCNC(=N)N)NC(=O)[C@H](CCCCN)NC(=O)[C@@H](N)Cc1ccccc1)[C@@H](C)CC)C(C)C)C(=O)N[C@@H](CCCCN)C(=O)N[C@@H](CC(=O)O)C(=O)N[C@@H](Cc1ccccc1)C(=O)N[C@@H](CC(C)C)C(=O)N[C@@H](CCCNC(=N)N)C(=O)N[C@@H](CC(N)=O)C(=O)N[C@@H](CC(C)C)C(=O)N[C@H](C(N)=O)C(C)C` [FK-16, FKRIVQRIKDFLRNLV, reference compound] (H-FKRIVQRIKDFLRNLV-NH2; N-terminus and C-terminus assumed), for which the “MIC EC” value in series [2] was determined as 4.67 ± 2.2 µM (≈ 9.55 µg/mL). Besides, in series [3], the “MIC EF” value worked out at 3.1 ± 0 µM (≈ 6.34 µg/mL). In addition, the “MIC range against almost all / most of the tested strains” value in series [4] lay in the range of 3.1 to 12.5 µM. For the same compound, in series [5], the “MIC SA” value was found to be 4.67 ± 1.8 µM (≈ 9.55 µg/mL). Besides, the “MIC AB” value in series [6] was 4.67 ± 2.2 µM (≈ 9.55 µg/mL). In addition, in [7], the “MIC PA” value stood at 50 µM (≈ 102 µg/mL). Besides, in series [8], the “MIC ECl” value was 12.5 ± 0 µM (≈ 25.6 µg/mL).
On to `CC[C@H](C)[C@H](NC(=O)[C@H](CCCNC(=N)N)NC(=O)[C@H](CCCNC(=N)N)NC(=O)[C@H](CCCNC(=N)N)NC(=O)[C@H](Cc1c[nH]c2ccccc12)NC(=O)[C@H](Cc1c[nH]c2ccccc12)NC(=O)[C@@H](N)Cc1c[nH]c2ccccc12)C(=O)N[C@@H](Cc1c[nH]c2ccccc12)C(N)=O` [Peptide L4R, WWWRRRIW] (H-WWWRRRIW-NH2; N-terminus assumed), for which the “loss in activity compared to the WT” value in [9] (MRSA USA300) is given as “four-fold”. Further, in [9] (S. aureus USA300), the “S. aureus (MIC)” value stood at 12.5 µM. Moreover, in [10], the “killing in preformed biofilms (XTT)” value was 20%. Further, the “E. coli (MIC)” value in series [11] amounted to 25 µM. The “growth inhibition of S. aureus USA300” value in [12] was “also potent”. Also, the HL50 in series [13] is greater than 200 µM.
For the compound `CC[C@H](C)[C@H](NC(=O)[C@H](CCCNC(=N)N)NC(=O)[C@H](CO)NC(=O)[C@H](CC(C)C)NC(=O)[C@H](Cc1ccccc1)NC(=O)[C@H](Cc1ccccc1)NC(=O)[C@@H](N)Cc1ccccc1)C(=O)N[C@@H](Cc1ccccc1)C(N)=O` [Temporin-SHf, FFFLSRIF] (H-FFFLSRIF-NH2; N-terminus and C-terminus assumed), the “MIC E. coli ATCC 35218” value in series [14] was greater than 200 µM. For the same compound, the “MIC B. megaterium” value in series [15] is 3 µM (≈ 3.23 µg/mL). Moreover, in [16], the “MIC S. aureus ATCC 25923” value was 12.5 µM (≈ 13.4 µg/mL). For the same compound, the “MIC E. coli ATCC 25922 and ML-35p strains” value in [17] is 25 to 30 µM. The “MIC S. aureus USA300” value in series [18] was 25 µM (≈ 26.9 µg/mL).

The record behind these values is patent US20190048052A1, “ANTI-MICROBIAL PEPTIDES AND COATINGS” (Board of Regents of the University of Nebraska, priority 2016, published 2019).
